# pIC50: −log10 of the molar value.
# Tests used:
# SK-OV-3 = test: Cell viability assay, cancer cell line panel; assay type: cell-based; conditions: Homo sapiens, mutation PIK3CA
# NCCIT = test: Cell viability assay, cancer cell line panel; assay type: cell-based; conditions: Homo sapiens, mutation PTEN
# AGS = test: Cell viability assay, cancer cell line panel; assay type: cell-based; conditions: Homo sapiens, mutation KRAS, PIK3CA
# T47D = test: Cell viability assay, cancer cell line panel; assay type: cell-based; conditions: Homo sapiens, mutation PIK3CA
# BT-20 = test: Cell viability assay, cancer cell line panel; assay type: cell-based; conditions: Homo sapiens, mutation PIK3CA
# KG-1 cell line = test: Screen of further cell lines; assay type: cell-based; conditions: acute myeloid leukemic line
# Text: (§1) In order to determine if there were additional cell lines that were profoundly sensitive to this compound, a further 82 cell lines were screened which represented more than 20 different tumor types of origin. […] Without wishing to bound by a particular theory, these three additional cell lines are all acute myeloid leukemic lines that have different activating mutations in oncogenes that have been associated with elevated PI3K activity. MV4-11 has the FLT3 internal tandem duplication (ITD) and Kasumi-1 has amplified and mutated c-kit as well as the AML-ETO gene fusion. […] All three lines have wild-type PTEN but have shown to express very low levels of PTEN protein, which makes them functionally deficient for PTEN.
# Kasumi cell line = test: Screen of further cell lines; assay type: cell-based; conditions: acute myeloid leukemic line
# Text: as §1
# MV4-11 cell line = test: Screen of further cell lines; assay type: cell-based; conditions: acute myeloid leukemic line
# Text: as §1
# [1] = test system: AKT phosphorylation (Thr308) in AN3-CA cells; test: AKT (T308) Phosphorylation Assay (Meso Scale Discovery); assay type: cell-based; conditions: Homo sapiens, 24 hours, FIG. 7A, read-out: IC50 knock down of phospho-AKT (Thr308) levels
# Experimental: AN3-CA cells were plated in 900 μl of RPMI-1640 media supplemented with 10% FBS and 1% Pen/Strep at a density of 8×10^5 cells per well in 6-well plates. Cells were allowed to attach by incubation overnight at 37° C. and 5% CO2. Test compounds were diluted to 10× concentrations in RPMI-1640 media (containing 3% DMSO) and 100 μl of these dilutions were added to the appropriate wells containing the cells. The plates containing the drug-treated cells and appropriate controls were incubated for 24 hours. At the end of incubation, phosphorylated AKT was evaluated in treated and control samples using a Meso Scale Discovery (Gaithersburg, Md.) assay kit (human Phospho-Akt (Thr308) kit) and by following the manufacturer's instructions included with the kit. Total AKT (phosphorylated and unphosphorylated) was also evaluated in the samples using a separate kit (Meso Scale Discovery). The percentage of AKT phosphorylated at the Thr308 position (also indicated as T308 herein) was determined by normalizing the phospho-AKT signal to the total AKT signal and then showing the percent phosphorylation in the treated samples relative to the controls.
# Briefly, AN3-CA cells were treated with the compound for 24 hours and lysates from these treatments were analyzed for phospho-AKT (Thr308) using the Meso Scale Discovery technology platform as described above.
# VEGFR1 = VEGFR1 (Homo sapiens (Human), UniProt P17948); test: Kinase profiling, fluorometric assays by Life Technologies; assay type: biochemical; conditions: profiling at 500 nM, FIG. 8
# Experimental: (§2) The panel comprised 78 distinct protein kinases, and data are shown for a subset of 20 kineases (see FIG. 8). Kinase profiling was performed against a focus panel of kinases relevant to PDK1 signaling and other known oncogenic kinases. The activity profiling as performed at 500 nM and percent inhibition at that concentration was determined for each kinase shown.
# (§3) The kinase specificity was measured using fluorometric assays performed by Life Technologies (Grand Island, N.Y.). Assay conditions vary for each kinase and are available from Life Technologies, Grand Island, NY. For example, the assay conditions for PDK1 are as follows. The 2×PDK1/Ser/Thr-07 mixture is prepared in 50 mM Tris pH 8.5, 0.01% BRIJ-35, 10 mM MgCl2, 1 mM EGTA, 0.02% NaN3. The final 10 μL Kinase Reaction consists of 7.36-38.7 ng PDK1 and 2 μM Ser/Thr 07. After the 1 hour kinase reaction incubation, 5 μL of a 1:32768 dilution of Development Reagent A is added.
# p70S6K = p70S6K (Homo sapiens (Human), UniProt P23443); test: as above; assay type: biochemical; conditions: profiling at 500 nM, FIG. 8
# Experimental: as §2, §3
# [2] = test system: phosphorylation of the ribosomal S6 protein; test: Western blot of phospho-S6 in excised xenograft tumors; assay type: in vivo, athymic nude mice; conditions: western blot of tumors after the study, 50 mg/kg IP
# Experimental: Cells were washed with PBS and whole cell lysates were prepared by incubating cells in […] (Invitrogen Corporation, Carlsbad, Calif.) supplemented with Protease Inhibitor Cocktail (Roche Applied Science, a division of Roche Diagnostics Corporation, Indianapolis, Ind.) and Phosphatase Inhibitor Cocktail (Roche) on ice for 30 minutes. After centrifuging the lysates at 12,000 rpm for 10 minutes at 4° C., the supernatant was collected. Protein concentration was determined using BCA Assay. The same amounts of protein were run on NuPAGE 4-12% Bis-Tris Gel, and then transferred onto a PVDF membrane. […]
# The in vivo effects of compounds were determined in a mouse subcutaneous xenograft tumor model wherein AN3-CA cells were implanted subcutaneously into the hind flank of athymic nude mice. […] Tumor volume was determined using the formula L×W2×0.5, where L is the longest length, and W is the shortest length. Tumor volume and body weight was measured twice a week.
# Following the study, the tumors from the vehicle and test compound groups were removed from the animals and analyzed for phosho-S6 levels by western blot (FIG. 10C). […]
# VEGFR1, sequence (P17948 27-1338): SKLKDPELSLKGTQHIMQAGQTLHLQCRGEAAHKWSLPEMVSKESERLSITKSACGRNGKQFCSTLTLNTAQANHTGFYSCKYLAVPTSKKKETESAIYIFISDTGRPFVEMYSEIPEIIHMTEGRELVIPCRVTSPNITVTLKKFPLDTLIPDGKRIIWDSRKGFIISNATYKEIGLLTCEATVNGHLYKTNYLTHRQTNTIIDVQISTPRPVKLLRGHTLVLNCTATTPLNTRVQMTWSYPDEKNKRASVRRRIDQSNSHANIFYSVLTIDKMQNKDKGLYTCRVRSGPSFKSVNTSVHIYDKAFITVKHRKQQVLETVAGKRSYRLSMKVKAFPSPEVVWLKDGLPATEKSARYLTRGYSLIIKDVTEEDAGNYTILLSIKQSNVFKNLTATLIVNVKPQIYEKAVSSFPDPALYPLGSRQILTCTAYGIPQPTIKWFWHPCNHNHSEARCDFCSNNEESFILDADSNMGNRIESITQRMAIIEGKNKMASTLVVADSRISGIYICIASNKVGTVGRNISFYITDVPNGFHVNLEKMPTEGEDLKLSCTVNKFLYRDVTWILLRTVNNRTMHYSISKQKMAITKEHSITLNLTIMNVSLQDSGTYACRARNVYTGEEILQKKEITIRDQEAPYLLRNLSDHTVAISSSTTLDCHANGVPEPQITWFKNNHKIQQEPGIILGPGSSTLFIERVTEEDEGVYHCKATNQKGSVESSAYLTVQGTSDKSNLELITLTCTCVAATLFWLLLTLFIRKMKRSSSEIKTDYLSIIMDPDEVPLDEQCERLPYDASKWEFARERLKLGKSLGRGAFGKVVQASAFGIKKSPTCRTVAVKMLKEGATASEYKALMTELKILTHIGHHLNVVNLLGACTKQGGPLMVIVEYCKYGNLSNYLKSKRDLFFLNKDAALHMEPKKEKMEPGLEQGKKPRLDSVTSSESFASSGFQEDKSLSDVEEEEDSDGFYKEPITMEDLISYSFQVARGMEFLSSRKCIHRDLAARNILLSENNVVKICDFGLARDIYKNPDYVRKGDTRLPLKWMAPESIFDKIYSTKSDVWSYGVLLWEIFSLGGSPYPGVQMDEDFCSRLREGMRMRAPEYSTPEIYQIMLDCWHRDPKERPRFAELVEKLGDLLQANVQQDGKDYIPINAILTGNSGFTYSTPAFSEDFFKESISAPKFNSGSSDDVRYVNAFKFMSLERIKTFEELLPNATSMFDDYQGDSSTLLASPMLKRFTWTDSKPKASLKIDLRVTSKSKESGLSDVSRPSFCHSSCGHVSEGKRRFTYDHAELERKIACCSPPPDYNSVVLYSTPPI
# p70S6K, sequence (P23443 whole entry): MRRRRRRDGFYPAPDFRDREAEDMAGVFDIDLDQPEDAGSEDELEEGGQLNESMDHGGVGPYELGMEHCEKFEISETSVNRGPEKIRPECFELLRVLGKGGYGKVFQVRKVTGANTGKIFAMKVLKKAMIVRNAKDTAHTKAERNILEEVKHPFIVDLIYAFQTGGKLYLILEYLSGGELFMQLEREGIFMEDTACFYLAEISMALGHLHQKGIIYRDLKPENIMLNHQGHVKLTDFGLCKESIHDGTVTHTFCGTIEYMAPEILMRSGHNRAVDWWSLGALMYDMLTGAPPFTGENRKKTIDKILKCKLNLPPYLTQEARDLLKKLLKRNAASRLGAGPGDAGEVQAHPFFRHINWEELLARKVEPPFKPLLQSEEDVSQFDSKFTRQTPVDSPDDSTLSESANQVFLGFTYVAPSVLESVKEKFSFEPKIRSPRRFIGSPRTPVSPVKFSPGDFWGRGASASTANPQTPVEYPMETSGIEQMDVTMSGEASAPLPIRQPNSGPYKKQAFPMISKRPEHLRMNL
pIC50 (SK-OV-3),pIC50 (NCCIT),pIC50 (AGS),pIC50 (T47D),pIC50 (BT-20),pIC50 [1],Kinase profiling activity against VEGFR1 (in words) (VEGFR1),Kinase profiling activity against p70S6K (in words) (p70S6K),SMILES,Sensitivity of KG-1 cell line (KG-1 cell line),Sensitivity of Kasumi cell line (Kasumi cell line),Sensitivity of MV4-11 cell line (MV4-11 cell line),Phospho-S6 levels in tumors compared to the vehicle group [2]
5.72,5.68,5.56,4.89,4.88,7.29,relatively potent activity,potent activity,"O=C(Nc1ccc2[nH]nc(-c3nc4ccc(N5CCOCC5)cc4[nH]3)c2c1)C1CC1(F)F (stereo not drawn) [Compound 1, 2,2-difluoro-N-(3-(5-morpholino-1H-benzo[d]imidazol-2-yl)-1H-indazol-5-yl)cyclopropanecarboxamide]",very sensitive,very sensitive,very sensitive,
,,,,,,,,"CC1CN(c2ccc3nc(-c4n[nH]c5ccc(NC(=O)C6CC6(F)F)cc45)[nH]c3c2)CCO1 (stereo not drawn) [Compound 2, 2,2-difluoro-N-(3-(5-(2-methylmorpholino)-1H-benzo[d]imidazol-2-yl)-1H-indazol-5-yl)cyclopropanecarboxamide]",,,,down-regulation of phospho-S6 levels
